Experimental data reported in patent publication US20210361639A1, “SOLID COMPOSITIONS OF ACTIVES, PROCESSES FOR PREPARING SAME AND USES OF SUCH SOLID COMPOSITIONS” (The University of Liverpool, priority 2018, published 2021).

Tests used:
[1] = Single oral dose pharmacokinetics of atazanavir; set-up: species or system Wistar rats; conditions: male, Wistar, rat, in vivo, 10 mg/kg
Protocol: All animal work was conducted in accordance with the Animals (Scientific Procedures) Act 1986 (ASPA) implemented by the UK Home Office. The rodents were housed with environmental enrichment and a 12 h light/dark cycle at 21° C.±2° C. Free access to food and water was provided at all times during acclimatisation. Following 7-days acclimatisation, adult male Wistar rats (280-330 g) were fasted overnight and dosed with 10 mg Kg^−1 atazanavir at 10 μCi/mg, either as a conventional [^3H]-atazanavir preparation (<5% DMSO) or as a [^3H]-^ATVSDNF68/T20 nanodispersion using a 7-cm curved gavage needle. Subsequently, blood samples were collected (0.2 ml) at 1, 2, 2.5, 3, 6 and 12 h post-dosing from the tail vein. At 24 h, the rats were sacrificed using cardiac puncture under terminal anaesthesia (isoflurane/oxygen), followed by immediate exsanguination of blood from the heart. Subsequently, an overdose of sodium pentobarbitone was administered using the same in situ puncture needle. Blood samples were collected in heparinised Eppendorf tubes and centrifuged at 3,000 rpm for 5 min. The plasma layer was collected and stored at −20° C. prior to analysis.

[2] = Multiple oral dose (every 6 hours) pharmacokinetics of atazanavir; assay type: in vivo, Wistar rats; conditions: multiple oral dose 10 mg/kg atazanavir every 6 hours, steady state, rat plasma
Protocol: All animal work was conducted in accordance with the Animals (Scientific Procedures) Act 1986 (ASPA) implemented by the UK Home Office. The rodents were housed with environmental enrichment and a 12 h light/dark cycle at 21° C.±2° C. Free access to food and water was provided at all times. Following 7-days acclimatisation, adult male Wistar rats (280-330 g) were dosed with 10 mg Kg^−1 atazanavir at 5 μCi/mg, either as a conventional [^3H]-atazanavir preparation (<5% DMSO) or as a [^3H]^ATVSDNF68/T20 nanodispersion using a 7-cm curved gavage needle. Subsequent doses were administered at 6 hour intervals. Subsequently, trough blood samples were collected (0.15 ml) every 12 h post-dosing from the lateral tail vein. Steady state PK blood samples were taken at 60, 61, 62, 62.5, 63, 64 and 66 h post first dose. At 66 h, the rats were sacrificed using cardiac puncture under terminal anaesthesia (isoflurane/oxygen), followed by immediate exsanguination of blood from the heart. Subsequently, an overdose of sodium pentobarbitone was administered using the same in situ puncture needle. Blood samples were collected in heparinised Eppendorf tubes and centrifuged at 3,000 rpm for 5 min. The plasma layer was collected and stored at −20° C. prior to analysis.

COC(=O)N[C@H](C(=O)N[C@@H](Cc1ccccc1)[C@@H](O)CN(Cc1ccc(-c2ccccn2)cc1)NC(=O)[C@@H](NC(=O)OC)C(C)(C)C)C(C)(C)C [Aqueous atazanavir, atazanavir]
AUC(0-t) [1]: 60400 ng·h/mL
Cmax [1]: 4870 ng/mL
Cmin [1]: 1986 ng/mL
Tmax [1]: 2 h
AUC(0-t) ([2]; male, Wistar): 15500 ng·h/mL
Cmax ([2]; male, Wistar): 3090 ng/mL
Tmax ([2]; male, Wistar): 1 h
Cmin [2]: 1799 ng/mL
